This assay has as its target antibody D2.3. As to the kind of experiment: Binding of the product to the catalytic antibody. Further details: species or system Balb/c mice. As to conditions: binding to antibody D2.3.

On to `O=[N+]([O-])c1ccc(CO)cc1` [p-nitrobenzyl alcohol], for which the Kd turned out to be 52 µM.

For the origin of these results see patent publication EP0688431B1, “METHOD FOR SCREENING CATALYTIC NON-ENZYME POLYPEPTIDES AND PROTEINS” (YEDA RESEARCH AND DEVELOPMENT CO. LTD., priority 1993, dated 1994).
